Experiment in all cases: relative viability (nuclei count vs DMSO), 5 days (fraction); higher = more cells survive
Compound in test [1]: Cc1ccc(C(=O)N(CCCN)[C@@H](c2nc3cc(Cl)ccc3c(=O)n2Cc2ccccc2)C(C)C)cc1 [Ispinesib] + COc1cccc2cc(-c3nc([C@H]4CC[C@H](C(=O)O)CC4)n4ncnc(N)c34)[nH]c12 [OSI-027] (partner 0.5 µM)
The gist of the method:
(§1)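 A single step with final 0.05% Triton X-100, 1% formaldehyde and 1 ug/ml Hoechst fixed the cells and stained nuclei 5 days after treatment. Lung cancer cell lines in 1536-well plates had been treated by pin tool the day after seeding with one drug alone or a fixed anchor-drug dose plus five library-drug doses (not always all listed) in √10 steps, and nuclei were counted on 4× images. Relative viability is the ratio of nuclei in treated wells to nuclei in vehicle wells, taken as the median of duplicate plates.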

Compound in test [2]: Cc1ccc(C(=O)N(CCCN)[C@@H](c2nc3cc(Cl)ccc3c(=O)n2Cc2ccccc2)C(C)C)cc1 [Ispinesib] + NC(=O)Nc1cc(-c2cccc(F)c2)sc1C(=O)N[C@H]1CCCNC1 [AZD7762] (partner 0.2 µM)
The gist of the method:
as §1

Compound in test [3]: C[C@]1(O)C[C@@H](c2nc(-c3ccc4ccc(-c5ccccc5)nc4c3)c3c(N)nccn32)C1 [Linsitinib] + Cc1cc(Nc2cc(N3CCN(C)CC3)nc(Sc3ccc(NC(=O)C4CC4)cc3)n2)n[nH]1 [Tozasertib] (partner 0.1 µM)
A digest of the protocol: as §1

Compound in test [4]: Cc1ccc(C(=O)N(CCCN)[C@@H](c2nc3cc(Cl)ccc3c(=O)n2Cc2ccccc2)C(C)C)cc1 [Ispinesib] + COc1cc2c(Oc3ccc(NC(=O)C4(C(=O)Nc5ccc(F)cc5)CC4)cc3F)ccnc2cc1OCCCN1CCOCC1 [Foretinib] (partner 0.25 µM)
The gist of the method:
as §1

As for NCI-H1355, the relative viability in test [1] (first compound 0.001 µM) was 0.352; in test [1] (first compound 0.003162 µM) it was 0.442; in test [1] (first compound 0.01 µM) it was 0.427; in test [1] (first compound 0.03162 µM), 0.316; in test [1] (first compound 0.1 µM), 0.261; in test [2] (first compound 0.001 µM), 0.783. Besides, the relative viability worked out at 0.847 in test [2] (first compound 0.003162 µM); 0.805 in test [2] (first compound 0.01 µM); 0.448 in test [2] (first compound 0.03162 µM); 0.284 in test [2] (first compound 0.1 µM); 0.584 in test [3] (first compound 0.01 µM); 0.576 in test [3] (first compound 0.03162 µM). The relative viability was determined as 0.475 in test [3] (first compound 0.1 µM); 0.458 in test [3] (first compound 0.3162 µM); 0.428 in test [3] (first compound 1 µM); 0.991 in test [4] (first compound 0.001 µM); 1.01 in test [4] (first compound 0.003162 µM); 1.24 in test [4] (first compound 0.01 µM). Moreover, the values for the relative viability in test [4] (first compound 0.03162 µM) and in test [4] (first compound 0.1 µM) were 0.95 and 0.444, respectively.

Turning to NCI-H1944, the relative viability in test [1] (first compound 0.001 µM) amounted to 0.398; in test [1] (first compound 0.003162 µM), 0.449; in test [1] (first compound 0.01 µM) it was 0.426; in test [1] (first compound 0.03162 µM) it was 0.338; in test [1] (first compound 0.1 µM), 0.17; in test [2] (first compound 0.001 µM) it was 0.443. The relative viability in test [2] (first compound 0.003162 µM) worked out at 0.483; in test [2] (first compound 0.01 µM), 0.482; in test [2] (first compound 0.03162 µM), 0.32; in test [2] (first compound 0.1 µM), 0.189; in test [3] (first compound 0.01 µM) it was 0.247; in test [3] (first compound 0.03162 µM) it was 0.256. The relative viability stood at 0.235 in test [3] (first compound 0.1 µM); 0.209 in test [3] (first compound 0.3162 µM); 0.221 in test [3] (first compound 1 µM); 0.797 in test [4] (first compound 0.001 µM); 0.908 in test [4] (first compound 0.003162 µM); 0.9 in test [4] (first compound 0.01 µM). Moreover, the relative viability turned out to be 0.627 in test [4] (first compound 0.03162 µM) and 0.677 in test [4] (first compound 0.1 µM).

For the cell line ABC-1, the relative viability in test [1] (first compound 0.001 µM) was determined as 0.488; in test [1] (first compound 0.003162 µM), 0.524; in test [1] (first compound 0.01 µM), 0.58; in test [1] (first compound 0.03162 µM), 0.203; in test [1] (first compound 0.1 µM), 0.283; in test [2] (first compound 0.001 µM), 0.981. The relative viability in test [2] (first compound 0.003162 µM) is 1.21; in test [2] (first compound 0.01 µM) it was 0.852; in test [2] (first compound 0.03162 µM), 0.395; in test [2] (first compound 0.1 µM) it was 0.301; in test [3] (first compound 0.01 µM), 0.18; in test [3] (first compound 0.03162 µM), 0.164. The relative viability in test [3] (first compound 0.1 µM) came to 0.145; in test [3] (first compound 0.3162 µM) it was 0.153; in test [3] (first compound 1 µM), 0.171; in test [4] (first compound 0.001 µM) it was 1.37; in test [4] (first compound 0.003162 µM) it was 1.35; in test [4] (first compound 0.01 µM), 1.11. For the same cell line, the relative viability amounted to 0.507 in test [4] (first compound 0.03162 µM) and 0.382 in test [4] (first compound 0.1 µM).

Take HOP-62: the relative viability turned out to be 0.756 in test [1] (first compound 0.001 µM); 1.07 in test [1] (first compound 0.003162 µM); 1.05 in test [1] (first compound 0.01 µM); 0.76 in test [1] (first compound 0.03162 µM); 0.444 in test [1] (first compound 0.1 µM); 0.441 in test [2] (first compound 0.001 µM). Besides, the relative viability turned out to be 0.848 in test [2] (first compound 0.003162 µM); 0.679 in test [2] (first compound 0.01 µM); 0.482 in test [2] (first compound 0.03162 µM); 0.214 in test [2] (first compound 0.1 µM); 0.356 in test [3] (first compound 0.01 µM); 0.336 in test [3] (first compound 0.03162 µM). In addition, the relative viability in test [3] (first compound 0.1 µM) amounted to 0.335; in test [3] (first compound 1 µM) it was 0.344; in test [4] (first compound 0.001 µM), 1.11; in test [4] (first compound 0.003162 µM), 1.32; in test [4] (first compound 0.01 µM), 1.35; in test [4] (first compound 0.03162 µM) it was 1.11. Besides, in test [4] (first compound 0.1 µM), the relative viability was 0.601.

The values above are taken from the supplement of paper PMC10307832.
